The results in this text go back to patent publication US9540358B2, “Tricyclic compounds as anticancer agents” (ICAHN SCHOOL OF MEDICINE AT MOUNT SINAI, priority 2011, dated 2017).

Data set [1] relates to naïve CD4 T cells. Nature of the data set: Treg induction from naïve CD4 T cells (Foxp3 expression). The class given is cell-based. Here is the method: Example 30 has been tested for its ability to induce Treg from naïve CD4 T cells. […] Fifty thousand CD4 naïve cells (CD62Lhi, CD25 low, CD4 positive) were incubated with 2 ng/mL TGFβ, 1 ug/mL anti-CD3, 100 ng/mL IL-2, 50000 APCs per well and the compounds 10 μM, 5 μM and 2.5 μM concentrations. The cells were incubated for 3 days and then stained for CD4 and Foxp3 expression. Results were expressed as fold increase over the % induced in control (DMSO) wells (typically 20-25% Foxp3+). AKTi, a small molecule AKT inhibitor, was used as a positive control; it induced about a 4-fold increase. […] The effects of Example 30 on iTreg induction are amplified as the TGFβ concentration decreases.

Data set [2] concerns H1650 lung cancer cells. Nature of the data set: Cell viability assay (MTT, IC50 determination). The data set is classed as cell-based. Particulars: Homo sapiens, NCI-H1650, 48 hours after drug treatment, MTT.
Data set [3] deals with alloreactive T cells. Briefly: Suppression assay using induced Tregs. The class given is cell-based.
Data set [4] deals with EGFR-L858R/CCSP mice. Nature of the data set: In vivo lung cancer model. To be noted: i.p. 100 mg/kg every other day, two week treatment period, MRI; DMSO control 20% increase. The method, then:
The in vivo lung cancer model is described in Politi et al., Genes Dev. Jun. 1, 2006 20: 1496-1510. EGFR-L858R/CCSP mice were fed doxycycline-impregnanted food pellets to induce tumor formation. After 8-12 weeks, mice were imaged in a Bruker 4.7T Biospec scanner to confirm lung nodule development. After tumor confirmation, the compound of Example 30 was prepared in DMSO (Sigma) and administered i.p. at 100 mg/kg every other day for two weeks. After treatment, the mice were re-imaged by MRI, and pre-treatment and post-treatment lung volumes were calculated by visible lung opacity present in each axial image using Osirix 4.1.1. DMSO control animals show a 20% increase in tumor volume over two week treatment period. Animals treated with the compound of Example 30 show a 60% decrease in tumor volume over two week treatment period.

The subject of data set [5] is H292 cells. Briefly: Colony formation (clonogenic) assay, H292. Particulars: 8 days. The class given is cell-based. Here is the method: (§1) Protocol for clonogenic assay follows Sangodkar et al. J Clin Invest 2012; 122:2637-51.
(§2) Cell culture and staining: For both A549luc and H292 cells, 500 cells were seeded into each well of a 6-well plate and allowed to attach for 24 hours before drug treatment. The following day, cells were treated with either the appropriate dose of drug or an equivalent volume of DMSO (two replicates were treated for each condition). For each condition, depleted media was replaced with fresh media containing the equivalent drug dose four days after initial treatment. Cells were harvested either 7 (A549luc) or 8 (H292) days after initial treatment. Briefly, media was aspirated from each well and the cells were washed twice with ice-cold PBS, then plates were allowed to dry at room temperature for 4 hours. Cells were fixed for one hour in a fixing solution consisting of 10% methanol and 10% glacial acetic acid in distilled water, then stained overnight in 1% (w/v) crystal violet dissolved in methanol. The next day, staining solution was aspirated from the wells and plates were washed gently with distilled water to remove excess stain before colony counting. Colonies were imaged on a ChemiDoc XRS+ (Bio-Rad) and images were exported as 8-bit TIFF files. Colonies were counted using the Colony Counter plugin in ImageJ, with colony size defined as between 4 and 400 square pixels, and minimum circularity set at 0.6. Duplicate wells were averaged to obtain a single value for each condition. Results (number of colonies) for A549luc cells are shown in Table 2 and results (number of colonies) for H292 cells are shown in Table 3: […]

Data set [6] relates to BALB/c hearts transplanted into fully allogeneic B6 recipients. Nature of the data set: Heart allograft survival. To be noted: 100 mg/kg i.p., n=4, p<0.05 vs control; untreated rejected by day 8. The class given is in vivo, mice. Here is the method:
To test for a clinically relevant in vivo effect, BALB/c hearts were transplanted into fully allogeneic B6 recipients. While untreated animals rejected their grafts by day 8 n=4, the grafts in the mice treated with 100 mg/kg i.p. of Example 30 lasted 18 days n=4, p<0.05 vs control, a statistically and clinically significant effect.

In data set [7] the test system is A549luc cells. Nature of the data set: Colony formation (clonogenic) assay, A549luc. The data set is classed as cell-based. To be noted: 7 days. Here is the method: as §1, §2
Data set [8] can be described thus: Cell viability assay (MTT, IC50 determination). The data set is classed as cell-based. Particulars: human, H1650 lung cancer cells.

`O=S(=O)(NCCN1c2ccccc2Sc2ccc(Cl)cc21)c1ccc(Cl)cc1` [Example 27, 4-chloro-N-(2-(2-chloro-10H-phenothiazin-10-yl)ethyl)benzenesulfonamide]: the “fold increase in iTreg over control (DMSO) wells” value in data set [1] (at 5 μM, 3 days, 2 ng/mL TGFβ) came to 2 fold. Also, the IC50 in data set [2] was found to be 20 µM.

Turning to `O=S(=O)(NCCCN1c2ccccc2CCc2ccc(Cl)cc21)c1ccc(OC(F)(F)F)cc1` [Example 30, N-(3-(3-chloro-10,11-dihydro-5H-dibenzo[b,f]azepin-5-yl)propyl)-4-(trifluoromethoxy)benzenesulfonamide], the “suppressive capacity of iTreg induced with or without compound (% inhibition of maximal proliferation)” value in data set [3] is listed as “equivalent suppressive capacity”. The “decrease in tumor volume” value in data set [4] is given as 60%. For the same compound, the number of colonies is 95 in data set [5] (5 μM); 74.5 in data set [5] (7.5 μM); 61 in data set [5] (10 μM); 116 in data set [7] (5 μM); 111.5 in data set [7] (7.5 μM); 67.5 in data set [7] (10 μM). The compound further yielded a heart graft survival in data set [6] of 18 days. Further, the “fold increase in iTreg over control (DMSO) wells” value in data set [1] (at 2.5 μM, 3 days, 2 ng/mL TGFβ) was “greater than 2 fold”. Besides, the “upregulation of Foxp3” value in data set [1] (naïve polyclonal T cells treated with TGFβ and TCR transgenic T cells stimulated in vivo during costimulatory blockade) was “facilitated upregulation of Foxp3”. In data set [2], this compound gave an IC50 of 12.6 µM.

As for `O=S(=O)(NCC(O)CN1c2ccccc2CCc2ccccc21)c1ccc(OC(F)(F)F)cc1` (centres unmarked) [Example 60, 4-Trifluoromethoxy-N-(3-(10,11-dihydro-5H-dibenzo[b,f]azepin-5-yl)-2-hydroxypropyl)benzenesulfonamide], the number of colonies in data set [5] (5 μM) stood at 107; in data set [5] (7.5 μM) it was 105; in data set [5] (10 μM), 42; in data set [7] (5 μM) it was 126.5; in data set [7] (7.5 μM), 118.5; in data set [7] (10 μM), 56. In data set [2], the IC50 was about 15 µM.

In turn, `O=S(=O)(NCCCN1c2ccccc2CCc2ccc(Cl)cc21)c1cnc(Cl)c(Br)c1` [Example 63, 5-Bromo-6-chloro-N-(3-(3-chloro-10,11-dihydro-5H-dibenzo[b,f]azepin-5-yl)propyl)pyridine-3-sulfonamide] yielded a viability at 48 h, 20 µM in data set [8] (@ 20 μM) of 65%.

For the compound `O=S(=O)(NC1CCCC(N2c3ccccc3CCc3ccccc32)C1)c1ccc(OC(F)(F)F)cc1` (centres unmarked) [Example 73, N-(3-(10,11-dihydro-5H-dibenzo[b,f]azepin-5-yl)cyclohexyl)-4-(trifluoromethoxy)benzenesulfonamide], the number of colonies is 40.5 in data set [5] (5 μM); 16.5 in data set [5] (7.5 μM); 7 in data set [5] (10 μM); 2 in data set [7] (5 μM); 0 in data set [7] (7.5 μM); 0 in data set [7] (10 μM).

Take `O=S(=O)(NC[C@@H](O)CN1c2ccccc2CCc2ccccc21)c1ccc(OC(F)(F)F)cc1` [Example 74, (S)—N-(3-(10,11-dihydro-5H-dibenzo[b,f]azepin-5-yl)-2-hydroxypropyl)-4-(trifluoromethoxy)benzenesulfonamide]: the number of colonies in data set [5] (5 μM) was 85.5; in data set [5] (7.5 μM), 65.5; in data set [5] (10 μM) it was 46.5; in data set [7] (5 μM), 135.5; in data set [7] (7.5 μM) it was 118.5; in data set [7] (10 μM) it was 96. Further, in data set [2], the half-inhibitory concentration (IC50) is about 15 µM.

`O=S(=O)(NC[C@H](O)CN1c2ccccc2CCc2ccccc21)c1ccc(OC(F)(F)F)cc1` [Example 75, (R)—N-(3-(10,11-dihydro-5H-dibenzo[b,f]azepin-5-yl)-2-hydroxypropyl)-4-(trifluoromethoxy)benzenesulfonamide]: the number of colonies turned out to be 109.5 in data set [5] (5 μM); 80 in data set [5] (7.5 μM); 47 in data set [5] (10 μM); 133.5 in data set [7] (5 μM); 105 in data set [7] (7.5 μM); 63.5 in data set [7] (10 μM). Further, the IC50 in data set [2] was about 15 µM.

In data set [8] (@ 40 μM), `O=S(=O)(NCCCN1c2ccccc2CCc2ccccc21)c1cccnc1` [Example 89] gave a viability at 48 h, 40 µM of 50%.

As to `O=C(CCCN1CCC(O)(c2ccc(Cl)cc2)CC1)c1ccc(F)cc1` [Haloperidol, reference compound], the “fold increase in iTreg (Foxp3+) over control (DMSO) wells” value in data set [1] (control compounds, concentration not given, 3 days, 2 ng/mL TGFβ) is listed as “did not induce a statistically significant increase”.
